Experimental data taken from patent US12076307B2, “Compositions for prevention or treatment of acute radiation syndrome and other radiation exposure” (priority 2017, dated 2024).

Test system: CXCL8
Experiment: CXCL8 release in HaCaT cells treated with CM or rhHMGB1
Type: cell-based, human
Details: rhHMGB1-treated cells
Experimental: An additional experiment was tested for assessing whether EC-18 treatment leads to early termination of the RIPK1/3-MLKL-mediated downstream necroptosis pathway. This was performed by using DAMP-containing conditioned media (CM) harvested from HaCaT cells, irradiated for 48 hrs, and analyzed after 2 or 72 hrs of EC-18 treatment. […] To further confirm that DAMPs in CM contribute to the activation of a necroptosis signaling pathway in a paracrine manner, recombinant human HMGB1 (rhHMGB1) was treated directly to the normal HaCaT cells. The rhHMGB1 elevated the phosphorylation of RIPK1/3 and MLKL after 2 hrs and subsequently released HMGB1 and HSP90 (FIGS. 35C-35D). To evaluate whether EC-18 mitigates the activation of RIPK1/3 and MLKL, 10 or 100 μg/mL of EC-18 was treated before the addition of CM or rhHMGB1. As a result, EC-18 lowered the phosphorylation of RIPK/3 and MLKL in both CM- and rhHMGB1-treated cells after 2 hrs. Release of HMGB1 and Hsp90 was also subsided by EC-18 after 72 hrs of post addition of CM or rhHMGB1 to the cells (FIGS. 35A-35D). TLR4-induced necroptosis signaling pathway caused by DAMP release produces cytokines, such as CXCL8, a chemotactic cytokine for neutrophils. As CXCL8 increases upon tissue damage, it was measured in cells treated with CM or rhHMGB1 as a measure of inflammation. CXCL8 of CM from cells treated with chemo and radiotherapy was used for this evaluation. […] Moreover, rhHMGB1 increased the production of CXCL8, modulated by EC-18.

Row | SMILES | CXCL8 production
1 | CC(C)S(=O)(=O)c1ccc2nccc(Nc3ccc4scnc4c3)c2c1 [GSK872, reference compound] | significant reduction
2 | CN1C(=O)C(Cc2c[nH]c3ccccc23)NC1=S (centres unmarked) [Necrostin-1, reference compound] | significant reduction
